Data as given in US6239171A, “Tocotrienols and tocotrienol-like compounds and methods for their use” (Lipogenics, Inc., priority 1998, dated 2001).

Assays:
Assay type in all cases: in vivo, chicken
chickens [1] = experiment: Serum cholesterol, apolipoproteins, triglycerides and glucose in chickens fed supplemented diets; details: 4 weeks; for increase in the HDL-/LDL-cholesterol ratio / reduction of serum cholesterol: 100 ppm in diet
Description: All assays conducted on chicken or swine serum were done following the protocols described in A. A. Qureshi et al., "Lowering Of Serum Cholesterol In Hypercholesterolemic Humans By Tocotrienols" (Palmvitee), Am. J. Clin. Nutr., 53, pp. 1021S-26S (1991). All enzymatic assays were done following the protocols described in A. A. Qureshi et al., "Effects of Cereals and Culture Filtrate of Trichoderma viride on Lipid Metabolism of Swine", Lipids, 17, pp. 924 (1982). Plasma insulin, glucagon and TNF levels were measured using radioinnumoassay kits from Ventrex Laboratories, Inc. (Portland, Me.), ICN Biomedicals, Inc. (Costa Mesa, Calif.) and Genzyme Corp. (Cambridge, Mass.), respectively. […]
Each group of 6 chickens (6-week old female while leghorn) was administered the chick mash diet described in Example 5, supplemented with one of three different amounts of waxes (sterols), 50 ppm of TRF (prepared as in Example 2) or 5% equivalent of the methanol insoluble fraction Louisiana rice bran oil. […] The birds were fasted for a period of 14 hours prior to sacrifice (at 0800 hours). […]

HMG-CoA reductase = biological target: T1, HMG-CoA reductase (Homo sapiens, UniProt P04035); experiment: Hepatic HMG-CoA reductase activity in chickens fed supplemented diets; details: 4 weeks
T1 construct: hepatocytes isolated from livers of 8-week old female chickens; endogenous in cells; host or cells: primary chicken hepatocytes
T1 sequence (P04035 1-888): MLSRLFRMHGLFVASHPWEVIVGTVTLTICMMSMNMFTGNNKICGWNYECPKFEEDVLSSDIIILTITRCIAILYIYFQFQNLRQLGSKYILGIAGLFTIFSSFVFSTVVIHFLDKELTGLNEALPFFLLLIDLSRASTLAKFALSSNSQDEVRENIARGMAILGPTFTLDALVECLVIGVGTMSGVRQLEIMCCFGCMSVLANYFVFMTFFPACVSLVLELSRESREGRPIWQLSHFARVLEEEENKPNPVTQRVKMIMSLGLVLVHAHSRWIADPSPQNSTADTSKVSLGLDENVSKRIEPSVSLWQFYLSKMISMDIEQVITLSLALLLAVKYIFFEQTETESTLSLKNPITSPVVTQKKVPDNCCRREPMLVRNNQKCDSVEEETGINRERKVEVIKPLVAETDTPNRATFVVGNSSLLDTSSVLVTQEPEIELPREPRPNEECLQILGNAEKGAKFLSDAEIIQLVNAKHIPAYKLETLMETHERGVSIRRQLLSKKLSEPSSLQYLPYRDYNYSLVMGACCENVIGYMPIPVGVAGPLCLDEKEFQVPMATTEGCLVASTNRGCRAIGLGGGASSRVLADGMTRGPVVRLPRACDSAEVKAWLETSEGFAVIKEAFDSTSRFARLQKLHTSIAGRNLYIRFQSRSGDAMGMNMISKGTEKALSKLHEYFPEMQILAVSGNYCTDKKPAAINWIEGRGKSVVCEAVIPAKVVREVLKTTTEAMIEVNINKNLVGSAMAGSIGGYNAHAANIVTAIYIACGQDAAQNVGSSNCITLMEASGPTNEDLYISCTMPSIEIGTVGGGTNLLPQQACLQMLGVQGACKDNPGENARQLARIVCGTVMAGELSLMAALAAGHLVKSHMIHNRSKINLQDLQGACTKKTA
Description: (§1) This example measured the effects of the TRF and its components on the hepatic enzymatic activity of HMG-CoA reductase and cholesterol 7α-hydroxylase. […] The amount of feed consumed ranged from 11.19-11.60 g per chicken and the feeding period was 4 weeks. The birds were fasted for a period of 36 hours and refed for 48 hours prior to sacrifice (at 0800 hours).

[2] = test system: cholesterol 7α-hydroxylase; experiment: Hepatic cholesterol 7α-hydroxylase activity in chickens fed supplemented diets; details: 4 weeks
Description: as §1

chickens [3] = experiment: Plasma thromboxane B2 and platelet factor 4 in chickens fed supplemented diets; details: 4 weeks
Description: We next measured the effects of TRF and its components on serum levels of apolipoprotein (a)1, apolipoprotein B, triglycerides and glucose and the plasma levels of thromboxane B2 and platelet factor 4.

chickens [4] = experiment: Antibody titers to sheep red blood cells in chickens; details: 4 weeks, sheep red blood cells i.p.

Compound: CC(C)=CCC/C(C)=C/CO [Geraniol]
- increase in the HDL-/LDL-cholesterol ratio (chickens [1]): ≤ 31.5%
- reduction of serum cholesterol (chickens [1]): 14%
- APO A1, percentage of control (chickens [1]; control diet + 100 ppm): 98.58%
- APO A1 in serum (chickens [1]; control diet + 100 ppm): 138.40 mg/100 ml
- APO B in serum (chickens [1]; control diet + 100 ppm): 29.20 mg/100 ml
- APO B, percentage of control (chickens [1]; control diet + 100 ppm): 88.22%
- DL-Cholesterol/Total Cholesterol (chickens [1]; control diet + 100 ppm): 0.65
- DL-Cholesterol/Total Cholesterol, percentage of control (chickens [1]; control diet + 100 ppm): 110.10%
- Glucose in serum (chickens [1]; control diet + 100 ppm): 227.60 mg/100 ml
- Glucose, percentage of control (chickens [1]; control diet + 100 ppm): 101.47%
- HDL-Cholesterol in serum (chickens [1]; control diet + 100 ppm): 82.28 ± 1.06 mg/dL
- HDL-Cholesterol, percentage of control (chickens [1]; control diet + 100 ppm): 98.35%
- HDL-Cholesterol/LDL-Cholesterol (chickens [1]; control diet + 100 ppm): 2.00
- HDL-Cholesterol/LDL-Cholesterol, percentage of control (chickens [1]; control diet + 100 ppm): 131.50%
- LDL-Cholesterol in serum (chickens [1]; control diet + 100 ppm): 41.07 ± 1.13 mg/dL
- LDL-Cholesterol, percentage of control (chickens [1]; control diet + 100 ppm): 96.30%
- Total Cholesterol in serum (chickens [1]; control diet + 100 ppm): 122.53 ± 1.37 mg/dL
- Total Cholesterol, percentage of control (chickens [1]; control diet + 100 ppm): 85.82%
- Triglycerides in serum (chickens [1]; control diet + 100 ppm): 71.29 mg/100 ml
- Triglycerides, percentage of control (chickens [1]; control diet + 100 ppm): 96.30%
- HMG-CoA Reductase, percentage of control (HMG-CoA reductase; control diet + 100 ppm): 87.65%
- Cholesterol 7α-Hydroxylase, percentage of control ([2]; control diet + 100 ppm): 100.59%
- Cholesterol 7α-hydroxylase ([2]; control diet + 100 ppm): 10.28 nmol/min/mg
- Platelet Factor 4 (chickens [3]; control diet + 100 ppm): 12.38 ng/mL
- Platelet Factor 4, percentage of control (chickens [3]; control diet + 100 ppm): 94.57%
- Thromboxane B2 (chickens [3]; control diet + 100 ppm): 25.46 pg/mL
- Thromboxane B2, percentage of control (chickens [3]; control diet + 100 ppm): 98.53%
- IgG antibody titers in serum (chickens [4]; control diet + 100 ppm): 1.00 ± 0.00 Log 2
- IgM antibody titers in serum (chickens [4]; control diet + 100 ppm): 5.42 Log 2
- Total Ab titers in serum (chickens [4]; control diet + 100 ppm): 5.60 ± 2.11 Log 2

Compound: CC[C@H](C)C(=O)O[C@H]1C[C@@H](C)C=C2C=C[C@H](C)[C@H](CC[C@@H]3C[C@@H](O)CC(=O)O3)[C@H]21 [Lovastatin]
- increase in the HDL-/LDL-cholesterol ratio (chickens [1]): ≤ 31.5%
- reduction of serum cholesterol (chickens [1]): 10%
- APO A1, percentage of control (chickens [1]; control diet + 100 ppm): 99.29%
- APO A1 in serum (chickens [1]; control diet + 100 ppm): 139.9 mg/100 ml
- APO B in serum (chickens [1]; control diet + 100 ppm): 25.80 mg/100 ml
- APO B, percentage of control (chickens [1]; control diet + 100 ppm): 77.95%
- DL-Cholesterol/Total Cholesterol (chickens [1]; control diet + 100 ppm): 0.63
- DL-Cholesterol/Total Cholesterol, percentage of control (chickens [1]; control diet + 100 ppm): 108.00%
- Glucose in serum (chickens [1]; control diet + 100 ppm): 220.10 mg/100 ml
- Glucose, percentage of control (chickens [1]; control diet + 100 ppm): 98.13%
- HDL-Cholesterol in serum (chickens [1]; control diet + 100 ppm): 81.38 ± 0.73 mg/dL
- HDL-Cholesterol, percentage of control (chickens [1]; control diet + 100 ppm): 97.28%
- HDL-Cholesterol/LDL-Cholesterol (chickens [1]; control diet + 100 ppm): 1.84
- HDL-Cholesterol/LDL-Cholesterol, percentage of control (chickens [1]; control diet + 100 ppm): 121.40%
- LDL-Cholesterol in serum (chickens [1]; control diet + 100 ppm): 44.12 ± 1.26 mg/dL
- LDL-Cholesterol, percentage of control (chickens [1]; control diet + 100 ppm): 86.51%
- Total Cholesterol in serum (chickens [1]; control diet + 100 ppm): 128.65 ± 1.02 mg/dL
- Total Cholesterol, percentage of control (chickens [1]; control diet + 100 ppm): 90.11%
- Triglycerides in serum (chickens [1]; control diet + 100 ppm): 64.04 mg/100 ml
- Triglycerides, percentage of control (chickens [1]; control diet + 100 ppm): 86.51%
- Cholesterol 7α-Hydroxylase, percentage of control ([2]; control diet + 100 ppm): 110.96%
- Cholesterol 7α-hydroxylase ([2]; control diet + 100 ppm): 11.34 nmol/min/mg
- Platelet Factor 4 (chickens [3]; control diet + 100 ppm): 12.24 ng/mL
- Platelet Factor 4, percentage of control (chickens [3]; control diet + 100 ppm): 93.51%
- Thromboxane B2 (chickens [3]; control diet + 100 ppm): 24.89 pg/mL
- Thromboxane B2, percentage of control (chickens [3]; control diet + 100 ppm): 96.32%
- IgG antibody titers in serum (chickens [4]; control diet + 100 ppm): 1.00 ± 0.00 Log 2
- IgM antibody titers in serum (chickens [4]; control diet + 100 ppm): 5.90 Log 2
- Total Ab titers in serum (chickens [4]; control diet + 100 ppm): 6.33 ± 1.44 Log 2

Compound: CC(C)=CCC/C(C)=C/CC/C(C)=C/CCC1(C)CCc2cc(O)cc(C)c2O1 (stereo not drawn) [δ-T3, δ-tocotrienol]
- APO A1, percentage of control (chickens [1]; control diet + 50 ppm): 99.22%
- APO A1 in serum (chickens [1]; control diet + 50 ppm): 139.30 mg/100 ml
- APO B in serum (chickens [1]; control diet + 50 ppm): 27.30 mg/100 ml
- APO B, percentage of control (chickens [1]; control diet + 50 ppm): 82.48%
- DL-Cholesterol/Total Cholesterol (chickens [1]; control diet + 50 ppm): 0.65
- DL-Cholesterol/Total Cholesterol, percentage of control (chickens [1]; control diet + 50 ppm): 111.30%
- Glucose in serum (chickens [1]; control diet + 50 ppm): 205.30 mg/100 ml
- Glucose, percentage of control (chickens [1]; control diet + 50 ppm): 91.53%
- HDL-Cholesterol in serum (chickens [1]; control diet + 50 ppm): 77.78 ± 0.97 mg/dL
- HDL-Cholesterol, percentage of control (chickens [1]; control diet + 50 ppm): 93.08%
- HDL-Cholesterol/LDL-Cholesterol (chickens [1]; control diet + 50 ppm): 2.15
- HDL-Cholesterol/LDL-Cholesterol, percentage of control (chickens [1]; control diet + 50 ppm): 141.80%
- LDL-Cholesterol in serum (chickens [1]; control diet + 50 ppm): 36.14 ± 0.97 mg/dL
- LDL-Cholesterol, percentage of control (chickens [1]; control diet + 50 ppm): 65.64%
- Total Cholesterol in serum (chickens [1]; control diet + 50 ppm): 119.40 ± 1.41 mg/dL
- Total Cholesterol, percentage of control (chickens [1]; control diet + 50 ppm): 83.63%
- Triglycerides in serum (chickens [1]; control diet + 50 ppm): 60.50 mg/100 ml
- Triglycerides, percentage of control (chickens [1]; control diet + 50 ppm): 81.72%
- HMG-CoA Reductase, percentage of control (HMG-CoA reductase; control diet + 50 ppm): 75.83%
- Cholesterol 7α-Hydroxylase, percentage of control ([2]; control diet + 50 ppm): 107.44%
- Cholesterol 7α-hydroxylase ([2]; control diet + 50 ppm): 10.98 nmol/min/mg
- Platelet Factor 4 (chickens [3]; control diet + 50 ppm): 8.23 ng/mL
- Platelet Factor 4, percentage of control (chickens [3]; control diet + 50 ppm): 62.87%
- Thromboxane B2 (chickens [3]; control diet + 50 ppm): 18.65 pg/mL
- Thromboxane B2, percentage of control (chickens [3]; control diet + 50 ppm): 72.17%
- IgG antibody titers in serum (chickens [4]; control diet + 50 ppm): 1.00 Log 2
- IgM antibody titers in serum (chickens [4]; control diet + 50 ppm): 8.25 ± 1.96 Log 2
- Total Ab titers in serum (chickens [4]; control diet + 50 ppm): 8.67 ± 1.78 Log 2
